# Values of other authors, collected in US20080269177A1, “PESTICIDAL COMPOSITIONS” (ECOSMART TECHNOLOGIES, INC., priority 2007, published 2008).
# Legend:
# [1] = even at the lowest doses, 30 mg/kg/day
# [2] = even treatments as low as 1.2%
smiles,measurement,setting,value
"CCCCOCCOCCOCc1cc2c(cc1CCC)OCO2 [PBO, piperonyl butoxide]",liver weights in chronic toxicity studies,[1],increased liver weights
same,tumour finding in animal studies,[2],hepatocellular carcinomas
